{
  "source": "patent US11136313B2",
  "about": "“Compounds, compositions, and methods for modulating CFTR” (Proteostasis Therapeutics, Inc., priority 2015, dated 2021)",
  "data": [
    {"target": "T1, ΔF508-CFTR (Homo sapiens, UniProt P13569, DEL508-508)", "T1 construct": "Primary lung epithelial cells homozygous for the Cystic Fibrosis-causing ΔF508 mutation were differentiated for a minimum of 4 weeks; endogenous in cells; host or cells: primary lung epithelial cells (hBE) homozygous for ΔF508, differentiated at an air-liquid interface", "T1 sequence (P13569 with tags, fused parts or gaps DEL508-508)": "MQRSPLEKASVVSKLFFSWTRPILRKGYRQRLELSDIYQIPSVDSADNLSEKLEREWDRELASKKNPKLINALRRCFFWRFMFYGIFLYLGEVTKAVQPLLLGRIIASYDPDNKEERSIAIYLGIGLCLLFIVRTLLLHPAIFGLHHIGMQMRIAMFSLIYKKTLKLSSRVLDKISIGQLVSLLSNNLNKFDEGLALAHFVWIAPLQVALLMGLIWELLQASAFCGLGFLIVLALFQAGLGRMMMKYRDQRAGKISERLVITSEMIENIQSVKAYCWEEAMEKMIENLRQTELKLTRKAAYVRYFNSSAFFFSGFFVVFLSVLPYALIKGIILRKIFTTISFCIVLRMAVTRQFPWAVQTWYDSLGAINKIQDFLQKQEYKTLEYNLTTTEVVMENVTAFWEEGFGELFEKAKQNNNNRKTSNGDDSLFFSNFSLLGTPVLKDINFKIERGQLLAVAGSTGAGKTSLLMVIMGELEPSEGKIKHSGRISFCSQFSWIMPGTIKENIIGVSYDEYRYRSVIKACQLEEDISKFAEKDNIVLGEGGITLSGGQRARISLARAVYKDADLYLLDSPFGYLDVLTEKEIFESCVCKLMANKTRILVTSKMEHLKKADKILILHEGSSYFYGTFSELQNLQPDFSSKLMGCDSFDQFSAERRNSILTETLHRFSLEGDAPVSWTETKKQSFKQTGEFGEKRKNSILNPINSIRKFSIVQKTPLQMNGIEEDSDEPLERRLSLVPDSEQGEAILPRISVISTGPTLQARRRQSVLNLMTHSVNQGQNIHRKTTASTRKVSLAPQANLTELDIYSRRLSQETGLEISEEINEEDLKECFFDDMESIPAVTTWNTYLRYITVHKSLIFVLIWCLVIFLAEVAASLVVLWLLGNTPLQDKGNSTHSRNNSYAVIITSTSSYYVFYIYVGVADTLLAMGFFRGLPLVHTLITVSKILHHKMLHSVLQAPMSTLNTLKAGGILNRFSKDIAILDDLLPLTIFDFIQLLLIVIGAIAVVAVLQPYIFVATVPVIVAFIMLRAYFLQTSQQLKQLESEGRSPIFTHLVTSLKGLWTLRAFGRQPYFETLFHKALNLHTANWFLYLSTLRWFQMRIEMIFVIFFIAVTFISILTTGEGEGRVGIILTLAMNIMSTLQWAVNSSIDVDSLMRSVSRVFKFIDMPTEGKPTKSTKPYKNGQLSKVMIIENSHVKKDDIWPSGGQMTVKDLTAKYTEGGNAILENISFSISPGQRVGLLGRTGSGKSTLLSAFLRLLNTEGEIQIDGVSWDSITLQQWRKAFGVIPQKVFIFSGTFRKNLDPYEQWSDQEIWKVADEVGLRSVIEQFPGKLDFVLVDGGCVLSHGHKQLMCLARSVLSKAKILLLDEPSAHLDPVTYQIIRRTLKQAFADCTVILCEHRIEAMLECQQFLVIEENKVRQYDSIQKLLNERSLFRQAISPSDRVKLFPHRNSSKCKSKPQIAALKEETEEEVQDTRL", "experiment": "hBE equivalent current (Ieq) assay: AUC of equivalent chloride current after forskolin/VX-770 in primary lung epithelial cells homozygous for ΔF508", "assay_type": "cell-based", "settings": "relative to CFTR amplifier (Compound A)+VX-809 (3 uM), compound at 10 uM and Compound A at 3 uM, 24 h treatment", "outline": "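Readout is the increase over vehicle in equivalent chloride current AUC from forskolin/VX-770 addition to bumetanide, measured by current clamp at 36 °C after benzamil block of ENaC. Cultures were homozygous ΔF508 primary lung epithelium grown ≥4 weeks at air-liquid interface and exposed basolaterally to compound for 24 h.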", "values": [
      {"molecule": "Cc1c(-c2cc(C(=O)O)c3c(C)ccc(C)c3n2)oc2c(F)cccc12", "note": "[Compound 130, 2-(7-Fluoro-3-methyl-1-benzofuran-2-yl)-5,8-dimethylquinoline-4-carboxylic acid]", "Activity": "+ (activity<50% of an CFTR amplifier (Compound A)+VX-809 (3 uM) with compound at 10 uM and Compound A at 3 uM)"},
      {"molecule": "Cc1c(-c2cc(C(=O)O)c3c(C)ccc(C)c3n2)oc2c(OCc3ccccc3)cccc12", "note": "[Compound 132, 2-[7-(Benzyloxy)-3-methyl-1-benzofuran-2-yl]-5,8-dimethylquinoline-4-carboxylic acid]", "Activity": "++ (activity>50% of CFTR amplifier+VX-809 (3 uM) with compound at 10 uM and Compound A at 3 uM)"},
      {"molecule": "CCc1ccc(OCc2ccccc2)c2c(C(=O)O)cc(-c3sc4ccccc4c3C)nc12", "note": "[Compound 133, 5-(Benzyloxy)-8-ethyl-2-(3-methyl-1-benzothiophen-2-yl)quinoline-4-carboxylic acid]", "Activity": "++ (activity>50% of CFTR amplifier+VX-809 (3 uM) with compound at 10 uM and Compound A at 3 uM)"},
      {"molecule": "Cc1c(-c2cc(C(=O)O)c3c(OC4CCCCC4)ccc(C)c3n2)sc2ccccc12", "note": "[Compound 134, 5-(Cyclohexyloxy)-8-methyl-2-(3-methyl-1-benzothiophen-2-yl)quinoline-4-carboxylic acid]", "Activity": "++ (activity>50% of CFTR amplifier+VX-809 (3 uM) with compound at 10 uM and Compound A at 3 uM)"},
      {"molecule": "CCc1ccc(OC2CCCCC2)c2c(C(=O)O)cc(-c3sc4ccccc4c3C)nc12", "note": "[Compound 135, 5-(Cyclohexyloxy)-8-ethyl-2-(3-methyl-1-benzothiophen-2-yl)quinoline-4-carboxylic acid]", "Activity": "++ (activity>50% of CFTR amplifier+VX-809 (3 uM) with compound at 10 uM and Compound A at 3 uM)"},
      {"molecule": "Cc1c(-c2cc(C(=O)O)c3c(O[C@H](C)c4ccccc4)ccc(C)c3n2)sc2ccccc12", "note": "[Compound 137, 8-Methyl-2-(3-methyl-1-benzothiophen-2-yl)-5-[(1R)-1-phenylethoxy]quinoline-4-carboxylic Acid]", "Activity": "++ (activity>50% of CFTR amplifier+VX-809 (3 uM) with compound at 10 uM and Compound A at 3 uM)"},
      {"molecule": "Cc1c(-c2cc(C(=O)O)c3c(O[C@@H](C)c4ccccc4)ccc(C)c3n2)sc2ccccc12", "note": "[Compound 138, 8-Methyl-2-(3-methyl-1-benzothiophen-2-yl)-5-[(1S)-1-phenylethoxy]quinoline-4-carboxylic Acid]", "Activity": "++ (activity>50% of CFTR amplifier+VX-809 (3 uM) with compound at 10 uM and Compound A at 3 uM)"},
      {"molecule": "CCc1ccc([S+]([O-])C2CCCCC2)c2c(C(=O)[O-])cc(-c3sc4ccccc4c3C)nc12.[Na+]", "note": "(stereo not shown) [Compound 140, Sodium 5-(Cyclohexanesulfinyl)-8-ethyl-2-(3-methyl-1-benzothiophen-2-yl)quinoline-4-carboxylate]", "Activity": "++ (activity>50% of CFTR amplifier+VX-809 (3 uM) with compound at 10 uM and Compound A at 3 uM)"},
      {"molecule": "CCc1ccc(OCCc2cccnc2)c2c(C(=O)O)cc(-c3sc4ccccc4c3C)nc12", "note": "[Compound 141, 8-Ethyl-2-(3-methyl-1-benzothiophen-2-yl)-5-[2-(pyridin-3-yl)ethoxy]quinoline-4-carboxylic Acid]", "Activity": "+ (activity<50% of an CFTR amplifier (Compound A)+VX-809 (3 uM) with compound at 10 uM and Compound A at 3 uM)"},
      {"molecule": "CCc1ccc(OCc2cccc([S+](C)[O-])c2)c2c(C(=O)O)cc(-c3oc4ccccc4c3C)nc12", "note": "(stereo not shown) [Compound 142, 8-Ethyl-5-[(3-methanesulfinylphenyl)methoxy]-2-(3-methyl-1-benzofuran-2-yl)quinoline-4-carboxylic Acid]", "Activity": "++ (activity>50% of CFTR amplifier+VX-809 (3 uM) with compound at 10 uM and Compound A at 3 uM)"},
      {"molecule": "CCc1ccc(OCc2cccc(S(C)(=O)=O)c2)c2c(C(=O)O)cc(-c3oc4ccccc4c3C)nc12", "note": "[Compound 143, 8-Ethyl-5-[(3-methanesulfonylphenyl)methoxy]-2-(3-methyl-1-benzofuran-2-yl)quinoline-4-carboxylic Acid]", "Activity": "++ (activity>50% of CFTR amplifier+VX-809 (3 uM) with compound at 10 uM and Compound A at 3 uM)"},
      {"molecule": "CCc1ccc(OCc2ccc([S+](C)[O-])cc2)c2c(C(=O)O)cc(-c3oc4ccccc4c3C)nc12", "note": "(stereo not shown) [Compound 144, 8-Ethyl-5-[(4-methanesulfinylphenyl)methoxy]-2-(3-methyl-1-benzofuran-2-yl)quinoline-4-carboxylic acid]", "Activity": "++ (activity>50% of CFTR amplifier+VX-809 (3 uM) with compound at 10 uM and Compound A at 3 uM)"},
      {"molecule": "CCc1ccc(OCc2ccc(S(C)(=O)=O)cc2)c2c(C(=O)O)cc(-c3oc4ccccc4c3C)nc12", "note": "[Compound 145, 8-Ethyl-5-[(4-methanesulfonylphenyl)methoxy]-2-(3-methyl-1-benzofuran-2-yl)quinoline-4-carboxylic acid]", "Activity": "++ (activity>50% of CFTR amplifier+VX-809 (3 uM) with compound at 10 uM and Compound A at 3 uM)"},
      {"molecule": "CCc1ccc(OCc2ccccc2)c2c(C(=O)O)cc(-c3[nH]c4ccccc4c3C)nc12", "note": "[Compound 146, 5-(Benzyloxy)-8-ethyl-2-(3-methyl-1H-indol-2-yl)quinoline-4-carboxylic acid]", "Activity": "++ (activity>50% of CFTR amplifier+VX-809 (3 uM) with compound at 10 uM and Compound A at 3 uM)"},
      {"molecule": "CCc1ccc(OCc2ccccc2)c2c(C(=O)O)cc(-c3c(C)c4ccccc4n3C)nc12", "note": "[Compound 147, 5-(Benzyloxy)-2-(1,3-dimethyl-1H-indol-2-yl)-8-ethylquinoline-4-carboxylic acid]", "Activity": "+ (activity<50% of an CFTR amplifier (Compound A)+VX-809 (3 uM) with compound at 10 uM and Compound A at 3 uM)"},
      {"molecule": "CCc1ccc(OCc2ccccc2)c2c(C(=O)O)cc(-c3csc4ccccc34)nc12", "note": "[Compound 158, 2-(1-Benzothiophen-3-yl)-5-(benzyloxy)-8-ethylquinoline-4-carboxylic acid]", "Activity": "++ (activity>50% of CFTR amplifier+VX-809 (3 uM) with compound at 10 uM and Compound A at 3 uM)"},
      {"molecule": "CCc1ccc(OC2CCCCC2)c2c(C(=O)O)cc(-c3csc4ccccc34)nc12", "note": "[Compound 159, 2-(1-Benzothiophen-3-yl)-5-(cyclohexyloxy)-8-ethylquinoline-4-carboxylic acid]", "Activity": "++ (activity>50% of CFTR amplifier+VX-809 (3 uM) with compound at 10 uM and Compound A at 3 uM)"},
      {"molecule": "Cc1ccc(O[C@H](C)c2ccccc2)c2c(C(=O)O)cc(-c3csc4ccccc34)nc12", "note": "[Compound 162]", "Activity": "++ (activity>50% of CFTR amplifier+VX-809 (3 uM) with compound at 10 uM and Compound A at 3 uM)"},
      {"molecule": "CCc1ccc(O[C@H](C)c2ccccc2)c2c(C(=O)O)cc(-c3csc4ccccc34)nc12", "note": "[Compound 165]", "Activity": "++ (activity>50% of CFTR amplifier+VX-809 (3 uM) with compound at 10 uM and Compound A at 3 uM)"},
      {"molecule": "CCc1ccc(O[C@@H](C)c2ccccc2)c2c(C(=O)O)cc(-c3csc4ccccc34)nc12", "note": "[Compound 166]", "Activity": "++ (activity>50% of CFTR amplifier+VX-809 (3 uM) with compound at 10 uM and Compound A at 3 uM)"},
      {"molecule": "CCc1ccc(OCc2ccccc2)c2c(C(=O)O)cc(-c3coc4ccccc34)nc12", "note": "[Compound 169, 2-(1-Benzofuran-3-yl)-5-(benzyloxy)-8-ethylquinoline-4-carboxylic acid]", "Activity": "++ (activity>50% of CFTR amplifier+VX-809 (3 uM) with compound at 10 uM and Compound A at 3 uM)"},
      {"molecule": "CCc1ccc(OC2CCCCC2)c2c(C(=O)O)cc(-c3coc4ccccc34)nc12", "note": "[Compound 170, 2-(1-Benzofuran-3-yl)-5-(cyclohexyloxy)-8-ethylquinoline-4-carboxylic acid]", "Activity": "++ (activity>50% of CFTR amplifier+VX-809 (3 uM) with compound at 10 uM and Compound A at 3 uM)"},
      {"molecule": "CCc1ccc(OCc2ccccc2)c2c(C(=O)O)cc(-c3c(C)oc4ccccc34)nc12", "note": "[Compound 175]", "Activity": "++ (activity>50% of CFTR amplifier+VX-809 (3 uM) with compound at 10 uM and Compound A at 3 uM)"},
      {"molecule": "CCc1ccc(OC2CCCCC2)c2c(C(=O)O)cc(-c3c(C)oc4ccccc34)nc12", "note": "[Compound 176]", "Activity": "++ (activity>50% of CFTR amplifier+VX-809 (3 uM) with compound at 10 uM and Compound A at 3 uM)"},
      {"molecule": "CCc1cc(C(C)(C)C)cc2c(C(=O)O)cc(-c3c(C)oc4ccccc34)nc12", "note": "[Compound 178, 6-tert-Butyl-8-ethyl-2-(2-methyl-1-benzofuran-3-yl)quinoline-4-carboxylic acid]", "Activity": "++ (activity>50% of CFTR amplifier+VX-809 (3 uM) with compound at 10 uM and Compound A at 3 uM)"},
      {"molecule": "CCc1ccc(COc2ccccc2)c2c(C(=O)O)cc(-c3csc4ccccc34)nc12", "note": "[Compound 180]", "Activity": "++ (activity>50% of CFTR amplifier+VX-809 (3 uM) with compound at 10 uM and Compound A at 3 uM)"},
      {"molecule": "CCc1ccc(O[C@H]2CCC[C@@H](C)C2)c2c(C(=O)O)cc(-c3csc4ccccc34)nc12", "note": "[Compound 181, 2-(1-Benzothiophen-3-yl)-8-ethyl-5-[[(1S,3R)-3-methylcyclohexyl]oxy]quinoline-4-carboxylic Acid]", "Activity": "++ (activity>50% of CFTR amplifier+VX-809 (3 uM) with compound at 10 uM and Compound A at 3 uM)"},
      {"molecule": "CCc1ccc(O[C@@H]2CCC[C@H](C)C2)c2c(C(=O)O)cc(-c3csc4ccccc34)nc12", "note": "[Compound 182, 2-(Benzo[b]thiophen-3-yl)-8-ethyl-5-(((1R,3S)-3-methylcyclohexyl)oxy)quinoline-4-carboxylic Acid]", "Activity": "++ (activity>50% of CFTR amplifier+VX-809 (3 uM) with compound at 10 uM and Compound A at 3 uM)"},
      {"molecule": "CCc1ccc(O[C@@H]2CCC[C@@H](C)C2)c2c(C(=O)O)cc(-c3csc4ccccc34)nc12", "note": "[Compound 184, 2-(Benzo[b]thiophen-3-yl)-8-ethyl-5-(((1R,3R)-3-methylcyclohexyl)oxy)quinoline-4-carboxylic Acid]", "Activity": "++ (activity>50% of CFTR amplifier+VX-809 (3 uM) with compound at 10 uM and Compound A at 3 uM)"},
      {"molecule": "CCc1ccc(OCc2cccc(C)c2)c2c(C(=O)O)cc(-c3csc4ccccc34)nc12", "note": "[Compound 188]", "Activity": "++ (activity>50% of CFTR amplifier+VX-809 (3 uM) with compound at 10 uM and Compound A at 3 uM)"},
      {"molecule": "CCc1ccc(OCc2ccc(C)cc2)c2c(C(=O)O)cc(-c3csc4ccccc34)nc12", "note": "[Compound 189]", "Activity": "++ (activity>50% of CFTR amplifier+VX-809 (3 uM) with compound at 10 uM and Compound A at 3 uM)"}
    ]}
  ]
}
